Test results as given in BigSolDB 2.1.

O=C(O)CC(O)C(=O)O (configuration not stated)
solubility (mole fraction)
Conditions | 303.2 K | 308.2 K | 313.2 K | 318.2 K | 323.2 K | 328.2 K | 333.2 K
in 1,4-dioxane | 0.14 | 0.153 | 0.16 | 0.168 | 0.177 | 0.192 | 0.21
in THF | 0.145 | 0.156 | 0.191 | 0.199 | 0.219 | 0.235 | 0.253
in acetonitrile | 0.007 | 0.009 | 0.011 | 0.012 | 0.015 | 0.017 | 0.021
in ethanol | 0.082 | 0.091 | 0.101 | 0.115 | 0.121 | 0.129 | 0.134
in isopropanol | 0.036 | 0.045 | 0.055 | 0.071 | 0.094 | 0.118 | 0.134
in water | 0.066 | 0.084 | 0.106 | 0.132 | 0.154 | 0.17 | 0.184
